Assay results reported in patent publication US8278072B1, “Method for synthesis of sialylated products using reversible sialylation” (Health Research, Inc., priority 2007, dated 2012).

Key:
Format in all cases: biochemical
ST3Gal-II [1] = target: T1, ST3Gal-II (Rattus norvegicus, UniProt Q11205); test: CMP-NeuAc / UMP-NeuAc formed by reverse sialylation as sialyl donor, ST3Gal-II activity; settings: acceptor 2.5 mM D-Fucβ1,3GalNAcα-O-Bn; donor [3] 0.0625 mM, 8 mM 5′-CMP or 5′-UMP, 4 h, blank subtracted
T1 construct: purchased Calbiochem
T1 sequence (Q11205 1-350): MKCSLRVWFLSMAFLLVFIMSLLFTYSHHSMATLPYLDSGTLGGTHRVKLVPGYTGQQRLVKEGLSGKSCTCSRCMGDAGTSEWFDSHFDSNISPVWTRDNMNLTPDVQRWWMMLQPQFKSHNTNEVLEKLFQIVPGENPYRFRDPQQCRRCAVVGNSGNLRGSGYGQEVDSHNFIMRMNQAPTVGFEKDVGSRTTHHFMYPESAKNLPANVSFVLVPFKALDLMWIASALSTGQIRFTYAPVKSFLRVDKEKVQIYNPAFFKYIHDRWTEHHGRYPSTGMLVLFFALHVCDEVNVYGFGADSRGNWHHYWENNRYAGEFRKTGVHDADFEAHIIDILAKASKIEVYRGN

ST6Gal-I = target: T2, ST6Gal-I (Rattus norvegicus, UniProt P13721); test: CMP-NeuAc / UMP-NeuAc formed by reverse sialylation as sialyl donor, ST6Gal-I activity; settings: acceptor 2.5 mM Galβ1,4GlcNAcβ-O-Bn; donor [3] 0.0625 mM, 8 mM 5′-CMP or 5′-UMP, ST3Gal-II plus ST6GalI, 4 h
T2 construct: purchased Calbiochem
T2 sequence (P13721 1-403): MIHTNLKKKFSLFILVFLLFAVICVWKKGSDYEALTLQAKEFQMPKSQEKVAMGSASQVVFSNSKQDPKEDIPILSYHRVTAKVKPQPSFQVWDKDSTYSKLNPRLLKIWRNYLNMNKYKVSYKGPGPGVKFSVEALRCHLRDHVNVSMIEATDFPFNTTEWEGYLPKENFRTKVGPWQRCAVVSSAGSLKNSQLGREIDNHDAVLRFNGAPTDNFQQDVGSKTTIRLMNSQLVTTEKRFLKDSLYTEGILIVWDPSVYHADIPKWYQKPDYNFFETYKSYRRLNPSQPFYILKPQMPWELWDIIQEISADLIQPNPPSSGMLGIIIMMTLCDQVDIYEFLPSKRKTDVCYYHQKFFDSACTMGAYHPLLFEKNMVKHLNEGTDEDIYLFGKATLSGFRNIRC

ST3Gal-III = target: T3, ST3Gal-III (Rattus norvegicus, UniProt Q02734); test: CMP-NeuAc / UMP-NeuAc formed by reverse sialylation as sialyl donor, ST3Gal-III activity; settings: acceptor 2.5 mM 4-O-MeGalβ1,4GlcNAcβ-O-Bn; donor [3] 0.0625 mM, 8 mM 5′-CMP or 5′-UMP, ST3Gal-II plus ST3Gal-III, 4 h
T3 construct: purchased Calbiochem
T3 sequence (Q02734 1-374): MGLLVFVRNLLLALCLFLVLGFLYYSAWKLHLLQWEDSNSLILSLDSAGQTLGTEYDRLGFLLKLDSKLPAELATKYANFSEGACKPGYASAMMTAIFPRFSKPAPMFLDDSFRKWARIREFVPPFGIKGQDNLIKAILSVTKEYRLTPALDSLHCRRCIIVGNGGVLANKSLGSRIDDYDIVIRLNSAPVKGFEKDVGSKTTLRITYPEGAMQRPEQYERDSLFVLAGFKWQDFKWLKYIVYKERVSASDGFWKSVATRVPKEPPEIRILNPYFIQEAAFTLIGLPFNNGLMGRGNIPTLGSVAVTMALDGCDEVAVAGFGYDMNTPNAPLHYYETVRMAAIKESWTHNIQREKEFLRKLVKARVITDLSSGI

ST3Gal-II [2] = target: T1, ST3Gal-II; test: Serial transfer of sialic acid from donor via 5′-CMP to acceptors (scheme-II); settings: 0.15 mM donor; 2 mM 5′-CMP with core-2 donors
Description: FIG. 3. Serial transfer of sialic acid using scheme-II was followed at increasing concentrations of acceptor D-Fucβ1,3GalNAcα-O-Bn. The donor used was either: i) 0.15 mM [9-^3H]CMP-NeuAc; or, ii) 0.15 mM [9-^3H]NeuAcα2,3Galβ1,3(4-FGlcNAcβ1,6)GalNAcα-O-Bn [9-^3H [2]] in the presence of 2.0 mM 5′-CMP, or iii) [9-^3H]NeuAcα2,3Galβ1,3(6-O-SulfoGlcNAcβ1,6)GalNAcα-O—Al [[9-^3H] [4]] in the presence of 2.0 mM 5′-CMP. In runs where [9-^3H [2]] was donor since both and [2] bind C18 cartridges, control runs were performed in the absence of D-Fucβ1,3GalNAcα-O-Bn to estimate the amount of [9-^3H]CMP-NeuAc formed under the experimental conditions. 80-85% of the radioactivity was transferred to CMP-NeuAc in these runs. The amount of CMP-NeuAc remaining in runs with was then subtracted from CMP-NeuAc radioactivity in the control run to determine the amount of sialylated. To complement this run, studies were also performed with [[9-^3H] […] In these runs, the amount of sialylated was determined by measuring radioactivity retained in the C18-cartridge. a. Equilibrium constant was 5.55 when CMP-[9-^3H]NeuAc was donor. b. ˜10-fold lower acceptor concentration was required for similar extents of reaction when CMP-[9-^3H]NeuAc was donor, compared to core-2 based donors and [4].
We tested the possibility that CMP-NeuAc formed above may be available for transfer to other acceptors using ST3Gal-II (scheme-II, FIG. 3). For this, three radiolabeled donors were prepared using methods described above: two were based on the mucin Core-2 structure ([[9-^3H] [1]] and [9-^3H]NeuAcα2,3Galβ1,3(6-O-SulfoGlcNAcβ1,6)GalNAcα-O—Al [[9-^3H] [4]]) while the third was based on the Globo glycolipid ([9-^3H] [3]). The transfer of [9-^3H]NeuAc from these sialylated donors to various T-hapten (Galβ1,3GalNAcα) and mucin core2-based glycoside acceptors in the presence of 5′-CMP and ST3Gal-II was assessed (Table III). All three […] of ST3Gal-II ([1], [3] and [4]) allowed formation of CMP-[9-^3H]NeuAc, and a diverse array of products.
The transfer of [9-^3H]NeuAc from [[9-^3H][1]] to D-Fucβ1,3GalNAcα-O-Bn in the presence of 5′-CMP and ST3Gal-II increased linearly in the first two hours and it reached saturation at 4 hours (FIG. 12), and thus the data in Table III (4 hours time point) represent equilibrium conditions. […] Further, diverse sialylated products can be formed using the same synthetic sialylated donor.
In order to compare the efficiency of individual reactions of scheme II, independent runs were performed where either 0.15 mM [9-^3H]CMP-NeuAc, 0.15 mM [9-^3H] [2] or 0.15 mM [9-^3H] [4] was the donor, and [5] was the acceptor (FIG. 3). 2 mM 5′-CMP was added in runs with core-2 donors and [4], and thus reverse sialylation of these molecules was feasible. Keq for transfer of sialic acid from CMP-NeuAc to [5] was 5.55 (FIG. 3a). […] (˜6 mM) or [9-^3H[4]] (˜6 mM). Thus, while the two-step mechanism results in lower conversion than CMP-NeuAc alone, the transfer of NeuAc still takes place at an appreciable rate.

## CC(=O)N[C@H]1[C@H]([C@H](O)[C@H](O)CO)O[C@](OP(=O)(O)OC[C@H]2O[C@@H](n3ccc(N)nc3=O)[C@H](O)[C@@H]2O)(C(=O)O)C[C@@H]1O [CMP-NeuAc, reference compound]
ST3Gal-II [1]
  Incorporation of [9-3H]NeuAc into the acceptor, ST3Gal-II activity: 134122 CPM
ST6Gal-I
  Incorporation of [9-3H]NeuAc into the acceptor, ST6Gal-I activity: 15066 CPM
ST3Gal-III
  Incorporation of [9-3H]NeuAc into the acceptor, ST3Gal-III activity: 59531 CPM
ST3Gal-II [2]
  amount of acceptor [5] required for comparable transfer: 0.6 mM
